Results reported in ChEMBL document CHEMBL1139483, “Inhibitors of tripeptidyl peptidase II. 3. Derivation of butabindide by successive structure optimizations leading to a potential general approach to designing exopeptidase inhibitors” (J Med Chem, 2005).
Where a SMILES comes first, the peptide text is derived from it. [ ]: non-standard residue; d: D form. The star is where a group is joined. Pip = O=C(O)[C@@H]1CCCCN1; Nle = CCCC[C@H](N)C(=O)O; βNA = c1ccc2cc(N*)ccc2c1; Aze = O=C(O)[C@@H]1CCN1; Nva = CCC[C@H](N)C(=O)O; Abu = CC[C@H](N)C(=O)O; Aib = CC(C)(N)C(=O)O; NHBn = c1ccc(CN*)cc1; NHBu = CCCCN*

biological target: Tripeptidyl-peptidase 2 (Rattus norvegicus, UniProt Q64560); test: Inhibition of TPPII in rat cerebral membrane; assay type: cell membranes
Sequence (Q64560 whole entry): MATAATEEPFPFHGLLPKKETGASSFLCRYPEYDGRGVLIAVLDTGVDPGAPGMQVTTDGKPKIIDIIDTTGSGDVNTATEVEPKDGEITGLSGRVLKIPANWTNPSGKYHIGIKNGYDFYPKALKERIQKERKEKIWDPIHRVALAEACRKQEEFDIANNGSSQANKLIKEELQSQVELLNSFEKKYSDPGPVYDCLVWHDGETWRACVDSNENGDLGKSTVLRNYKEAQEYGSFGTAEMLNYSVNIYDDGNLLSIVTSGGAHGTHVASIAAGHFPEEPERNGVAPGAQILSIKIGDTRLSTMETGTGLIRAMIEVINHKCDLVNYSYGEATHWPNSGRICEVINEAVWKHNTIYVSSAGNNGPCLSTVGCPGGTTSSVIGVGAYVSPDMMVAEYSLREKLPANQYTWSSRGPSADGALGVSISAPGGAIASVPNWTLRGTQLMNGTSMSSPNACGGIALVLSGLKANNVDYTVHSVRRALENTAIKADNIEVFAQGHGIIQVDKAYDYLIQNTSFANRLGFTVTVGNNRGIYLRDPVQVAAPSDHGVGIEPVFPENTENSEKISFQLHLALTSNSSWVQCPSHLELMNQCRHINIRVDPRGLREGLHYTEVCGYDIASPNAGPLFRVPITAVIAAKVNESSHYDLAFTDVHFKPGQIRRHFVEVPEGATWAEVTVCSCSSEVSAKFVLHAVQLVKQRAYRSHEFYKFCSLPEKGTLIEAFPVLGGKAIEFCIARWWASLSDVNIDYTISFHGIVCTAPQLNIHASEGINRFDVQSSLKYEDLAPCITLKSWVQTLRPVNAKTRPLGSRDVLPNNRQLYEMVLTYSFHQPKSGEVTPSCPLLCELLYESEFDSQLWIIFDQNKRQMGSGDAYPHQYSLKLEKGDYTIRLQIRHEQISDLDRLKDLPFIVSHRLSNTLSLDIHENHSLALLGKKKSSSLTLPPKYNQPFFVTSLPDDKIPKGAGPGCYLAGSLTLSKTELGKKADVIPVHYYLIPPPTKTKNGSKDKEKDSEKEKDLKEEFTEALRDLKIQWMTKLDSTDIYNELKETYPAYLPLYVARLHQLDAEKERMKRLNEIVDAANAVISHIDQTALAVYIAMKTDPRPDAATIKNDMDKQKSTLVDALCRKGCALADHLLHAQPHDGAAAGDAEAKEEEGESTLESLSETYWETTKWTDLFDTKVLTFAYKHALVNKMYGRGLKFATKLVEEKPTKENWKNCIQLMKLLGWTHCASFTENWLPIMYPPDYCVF

`CC[C@H](N)C(=O)N1CCC[C@H](C(N)=O)C1` was tested. Which Ki did it give?
The Ki was 40 µM.

For `CC[C@H](C)NC(=O)[C@@H]1CCCN1C(=O)[C@@H](N)CC`, which Ki is on record?
The Ki was 20 µM.

`CCCCNC(=O)C1CCCCCN1C(=O)[C@@H](N)CC` (stereo partly drawn) was tested. Which Ki did it give?
Its Ki is 6 µM.

How did the Ki turn out when `CCCCNC(=O)[C@@H]1CC(Cc2ccccc2)CN1C(=O)[C@@H](N)CC` (stereo partly drawn) was run?
The Ki was 0.14 µM.

Which Ki does the source give for `CCCCNC(=O)[C@H]1CCCN1C(=O)[C@@H](N)C(C)C` here?
Its Ki is 190 µM.

How did the Ki turn out when `CC[C@H](N)C(=O)N1CCCC[C@@H]1C(N)=O` was run?
The Ki was 12 µM.

Which Ki does the source give for `CC[C@H](N)C(=O)N1CSC[C@@H]1C(N)=O` here?
Its Ki is 40 µM.

With `CC[C@@H](C)NC(=O)[C@@H]1CCCN1C(=O)[C@@H](N)CC` as the compound, how does the Ki read?
The Ki was 4.5 µM.

For `CC(C)[C@H](N)C(=O)N1CCC[C@H]1C(=O)NN1CCCCC1`, which Ki is on record?
Its Ki is 57 µM.

`C[C@H](N)C(=O)N1CCC[C@H]1C(N)=O` (H-Ala-Pro-NH2) was tested. Which Ki did it give?
The Ki was 2.1 µM.

How did the Ki turn out when `CC[C@H](C)[C@H](N)C(=O)N1CCC[C@H]1C(N)=O` (H-Ile-Pro-NH2) was run?
The Ki was 4.3 µM.

`CC(C)C[C@H](N)C(=O)N1CCC[C@H]1C(N)=O` (H-Leu-Pro-NH2) was tested. Which Ki did it give?
The Ki was 2.1 µM.

How did the Ki turn out when `NC(=O)[C@@H]1CCCN1C(=O)[C@@H](N)Cc1ccccc1` (H-Phe-Pro-NH2) was run?
Its Ki is 71 µM.

How did the Ki turn out when `CC(C)[C@H](N)C(=O)N1CCC[C@H]1C(N)=O` (H-Val-Pro-NH2) was run?
The Ki was 6 µM.

With `CC(C)[C@H](N)C(=O)N1CCC[C@H]1C(=O)NCc1ccccc1` (H-Val-Pro-NHBn) as the compound, how does the Ki read?
The Ki was 3.3 µM.

How did the Ki turn out when `CC(C)[C@H](N)C(=O)N1CCC[C@H]1C(=O)Nc1ccc2ccccc2c1` (H-Val-Pro-βNA) was run?
Its Ki is 860 µM.

With `CC[C@H](N)C(=O)N1CCC[C@H]1C(N)=O` (H-[Abu]-Pro-NH2) as the compound, how does the Ki read?
The Ki was 0.57 µM.

How did the Ki turn out when `CCCCNC(=O)[C@@H]1CCCN1C(=O)[C@@H](N)CC` (H-[Abu]-Pro-NHBu) was run?
Its Ki is 0.08 µM.

How did the Ki turn out when `CC[C@H](N)C(=O)N1CC[C@H]1C(N)=O` (H-[Abu]-[Aze]-NH2) was run?
Its Ki is 20 µM.

With `CCCCNC(=O)[C@@H]1CCCCN1C(=O)[C@@H](N)CC` (H-[Abu]-[Pip]-NHBu) as the compound, how does the Ki read?
Its Ki is 35 µM.

With `CCCCNC(=O)[C@@H]1CCCN1C(=O)C(C)(C)N` (H-[Aib]-Pro-NHBu) as the compound, how does the Ki read?
The Ki was 5 µM.

Which Ki does the source give for `CCCC[C@H](N)C(=O)N1CCC[C@H]1C(N)=O` (H-[Nle]-Pro-NH2) here?
The Ki was 2 µM.

With `CCC[C@H](N)C(=O)N1CCC[C@H]1C(N)=O` (H-[Nva]-Pro-NH2) as the compound, how does the Ki read?
The Ki was 1.6 µM.
